This data set in a line: Kinetic solubility assay (adapted shake flask method, McIlvaine buffer). The format is physicochemical. The note with it: pH 6.8, aqueous buffer, kinetic from dmso stock. As to the method: 10. Kinetic Solubility assay
Kinetic Solubility assay protocol
Adapted standard shake flask method to run in 1 mL 96-deep-well plates at a concentration of 100 µM in McIlvaine Buffer at pH values of 6.8 from 10 mM DMSO stock solutions.
Compounds are prepared in triplicate and incubated in buffer at room temperature for 18 hours while shaking at 700 RPM. After incubation the 96-deep-well plate is centrifuged at 5000 g for 10 minutes, half of the volume is transferred to another deep well plate and centrifuged again at 5000 g for 10 minutes. 200 µL are transferred from each well to a Greiner Bio-one 200 µL 96-well V-bottom plate and sealed. A six-point calibration curve is prepared for each compound ranging from 100 µM down to 0.5 µM. All samples are analyzed via UV-UHPLC on an Agilent 1290 Infinity (binary pump, auto-sampler, column compartment at 55 °C, and PDA) with a Phenomenex Kinetex EVO C18, 50 x 1 mm, 1.7 µm, 100 Å column, at 0.5 mL. Injections of 3 µL are analyzed with gradient elution using Milli-Q water with 0.05% trifluoroacetic acid (A1) and acetonitrile with 0.05% trifluoroacetic acid (B1) from 95:5 A1/B1 to 5:95 A1/B1 over 1.3 minutes with a 0.2 minute hold at 5:95 A1/B1. Wavelengths at 215 nm and 254 nm are monitored, peaks are integrated, and the peak area and peak height are used with linear regression analysis from the calibration curves to determine the solubility values.6 Kinetic Solubility assay data
A kinetic solubility for d, e, f, and g was calculated in the following Table.
Compound Kinetic solubility (µM, pH=6.8)
Table S7. Kinetic solubility for representative compounds.

The mark [1] stands for this setting: pH=6.8, McIlvaine Buffer, 100 µM from 10 mM DMSO stock, room temperature, 18 hours, triplicate.

SMILES strings stand for the structures. ≈ marks a conversion by molar mass, not a printed value.

As usually defined, the kinetic solubility is the concentration staying in solution when a stock, usually in DMSO, is diluted into the medium. The compound `Cc1ccccc1Oc1ccccc1NC(=O)c1ccccc1` [d, reference compound] had a solubility (kinetic) at 18 h (at neutral pH) of 5.74 µM (≈ 1.74 µg/mL).
Take `Cc1ccccc1O[C@H]1CCNC[C@@H]1NC(=O)c1ccccc1` [e]: the solubility (kinetic) at 18 h stood at 79.1 µM (≈ 24.5 µg/mL) (at neutral pH) and 90.67 ± 0.32 µM (≈ 28.1 µg/mL) under setting [1].
The corresponding values for `Cc1ccccc1O[C@H]1CNC[C@@H]1NC(=O)c1ccccc1` [f] are 90.7 µM (≈ 26.9 µg/mL) and 79.07 ± 0.44 µM (≈ 23.4 µg/mL).
With `Cc1ccccc1O[C@H]1CCCNCC[C@@H]1NC(=O)c1ccccc1` [g], the solubility (kinetic) at 18 h (at neutral pH) stood at 92.2 µM (≈ 31.2 µg/mL).

For the origin of these results see article PMC10913065, “Rapid sp^3-Enriched Scaffold Generation via a Selective Aziridine Amide Ring-Opening Reaction” (The Journal of Organic Chemistry, 2024).
